Here are results for 1 compound from patent publication US9274128B2, “Transcriptional repression leading to parkinson's disease” (priority 2010, dated 2016).

Each structure is given as a SMILES string. Peptide text beside a SMILES is read from it. * marks the point of attachment. Cbz = O=C(OCc1ccccc1)*

The test has as its system proteasome. Put plainly: PARIS steady state levels in SH-SY5Y cells treated with proteasome inhibitor (immunoblot). The note with it: for PARIS steady state level: 10 μM MG-132 vs DMSO control, normalized to β-actin. The class given is cell-based, human. Here is the method: Human neuroblastoma SH-SY5Y cells (ATCC, Manassas, Va.) were grown in DMEM containing 10% FBS and antibiotics in a humidified 5% CO2/95% air atmosphere at 37° C. For transient transfection, cells were transfected with indicated amounts of target vector using Lipofectamine Plus (Invitrogen), according to manufacturer's instructions. For co-immunoprecipitation from cell cultures, SH-SY5Y cells were transfected with 2 μg of each plasmid, unless otherwise indicated. For the ubiquitination assay, SH-SY5Y cells were transiently transfected with 2 μg of pRK5-Myc-tagged parkin, Myc-tagged parkin (C431F, G430D, R275W, and Q311 X) pCMV-FLAG-PARIS, and 2 μg of pMT123-HA-ubiquitin plasmids for 48 hours. For the luciferase assay SH-SY5Y cells were transiently transfected with pCMV-empty vector or pCMV-FLAG-PARIS with either wild type or Q311X parkin, or pGL3-Basic, pGL3-PGC-1α promoter-Luciferase, or pGL3-PGC-1α promoter deletion mutant (a gift from Akyoshi Fukamizu, University of Tsukuba, Japan) (Daitoku et al., 2003) for firefly Luciferase assay and 0.1 μg pRL-TK vector (Promega) for Renilla luciferase control.
The tissues including nine different organs, eight different brain regions from C57/BL6 mouse, human brain, and mouse brain were homogenized in lysis buffer [10 mM Tris-HCl, pH 7.4, 150 mM NaCl, 5 mM EDTA, 0.5% Nonidet P-40, 10 mM Na-β-glycerophosphate, […] I and II (Sigma), and Complete Protease Inhibitor Mixture (Roche)], using a Diax 900 homogenizer. After homogenization, samples were rotated at 4° C. for 30 min for complete lysis, then the homogenate was centrifuged at 52,000 rpm for 20 min, and the resulting fractions were collected. Protein levels were quantified using the BCA kit (Pierce) with BSA standards and analyzed by immunoblot. Immunoblotting was performed with an antibody of interest and was performed with chemiluminescence (Pierce). The densitometric analyses of the bands were performed using ImageJ (NIH, http://rsb.info.nih.gov/ij/). Data are expressed as mean±S.E.M. The results were evaluated for statistical significance by applying the unpaired two-tailed Student's t-test or Student-Newman-Keuls. Differences were considered significant when p<0.05.

`CC(C)C[C@@H](C=O)NC(=O)[C@H](CC(C)C)NC(=O)[C@H](CC(C)C)NC(=O)OCc1ccccc1` [MG132] (Cbz-Leu-Leu-Leu-aldehyde): the “PARIS steady state level” value is “increased approximately two to three fold”. For the same compound, the “PARIS steady state level” value (listed as MG-132) is given as “increases PARIS steady state levels”. In addition, for the setting “MYC-parkin to FLAG-PARIS 4 to 1, 10 μM MG-132”, the “Parkin-mediated degradation of FLAG-PARIS” value is listed as “blocked”. Besides, the “Parkin-mediated degradation of FLAG-PARIS” value (MYC-parkin to FLAG-PARIS 4 to 1, 10 μM MG-132, listed as MG-132) is given as “prevents the degradation of FLAG-PARIS”.
